The text below walks through data of article PMC5469366 (Journal of medicinal chemistry, 2017).

The test system of data set [1] is A. baumannii (ATCC19606). Briefly: Spontaneous mutation frequency on agar. Type of data set: cell-based, Acinetobacter baumannii. Particulars: 4xMIC concentration.
Data set [2] relates to MDR-A. baumannii ATCC BAA-1800. The data set is described as follows: MIC/MBC broth dilution, MDR A. baumannii. Type of data set: cell-based, Acinetobacter baumannii. As to conditions: for MBC / MIC: MDR-A. baumannii ATCC BAA-1800, broth dilution. Background: Broth dilution looks for growth in wells or tubes with falling amounts of substance.
Data set [3] can be described thus: Caco-2 permeability. Particulars: human. Format: in vitro ADME. (In general: Passage across Caco-2 layers is used to estimate intestinal permeability.)
Data set [4] deals with A. baumannii (ATCC19606). The data set is described as follows: Mouse septicemia model, survival. Type of data set: in vivo, C57BL/6 mice.
For data set [5], the system named is A. baumannii (ATCC 19606). The data set is described as follows: Micro dilution broth checkerboard. Format: cell-based, Acinetobacter baumannii. Particulars: wells at growth–no growth interface.
For data set [6] the following is noted: in vivo; cited from earlier work.
Data set [7] has as its system Vero cells. The data set is described as follows: Cytotoxicity. As to conditions: MTT assay. Format: cell-based, monkey.
The test system of data set [8] is A. baumannii ATCC 19606. The data set is described as follows: MIC/MBC broth dilution, drug sensitive A. baumannii. Particulars: for MBC: kills 99.9% of bacteria. Format: cell-based, Acinetobacter baumannii.
Setting [9] is: combination of valnemulin and doxycycline.

Several values for one entry are separate records, joined by “and”; a condition that tells them apart may be missing. Identical values can stand only once.

Turning to `C=C[C@]1(C)C[C@@H](OC(=O)CSC(C)(C)CNC(=O)[C@H](N)C(C)C)[C@]2(C)[C@H](C)CC[C@]3(CC[C@@H](O)[C@H]32)[C@@H](C)[C@@H]1O` [compound 1, (3R,3aR,4R,5R,7S,8S,9R,9aS,12R)-3,8-dihydroxy-4,7,9,12-tetramethyl-7-vinyldecahydro-4,9a-propanocyclopenta[8]annulen-5-yl 2-((1-((R)-2-amino-3-methylbutanamido)-2-methylpropan-2-yl)thio)acetate], the “spontaneous resistance mutation frequency” value in data set [1] is recorded as 1×10^−8. Also, the “concentrations at which the MDR strain was killed” value in data set [2] (A. baumannii ATCC BAA-1800) was in the range of 6.25 to 12.5 µg/mL. Also, the Papp (as a rule, the rate of passage across a membrane or cell layer, normalised by area and donor concentration) in data set [3] was above 1 ×10⁻⁶ cm/s. Besides, in data set [4] (IP single dose, 2 to 60 mg/kg), the “effectiveness in mouse septicemia model” value is given as “showed effectiveness in the same in vivo studies, but required higher dosage than that with 1-Dox35/1”.

In the case of `C=C[C@]1(C)C[C@@H](OC(=O)CSC(C)(C)CNC(=O)[C@H](N)C(C)C)[C@]2(C)[C@H](C)CC[C@]3(CCC(=O)[C@H]32)[C@@H](C)[C@@H]1O` [Valnemulin, valnemulin], the “MIC CA and CB (concentrations of A and B in combination)” value in data set [5] (setting [9]) was 0.78 µg/mL and 1.56 µg/mL. Moreover, the half-lives in plasma in data set [6] is 1.3 to 2.9 h.

As to `C[C@H]1c2cccc(O)c2C(=O)C2=C(O)[C@]3(O)C(=O)C(C(N)=O)=C(O)[C@@H](N(C)C)[C@@H]3[C@@H](O)[C@@H]21.O` [Doxycycline, doxycycline], the “MIC CA and CB (concentrations of A and B in combination)” value in data set [5] (combination of 1 and doxycycline) was 0.025 µg/mL and 0.05 µg/mL; in data set [5] (setting [9]), 0.025 µg/mL and 0.05 µg/mL.

For colistin, the “Cytotoxicity IC50” value in data set [7] is above 200 µg/mL. Also, in data set [8], the MIC (usually the smallest concentration in the dilution series that meets the test's criterion for growth inhibition) stood at 3.13 µg/mL and the MBC – broadly, the smallest concentration meeting the test's criterion for killing – was 6.25 µg/mL. In data set [2], this compound showed an MBC of 25.0 µg/mL and an MIC above 12.5 µg/mL.

`NC[C@H]1O[C@H](O[C@H]2[C@H](O)[C@@H](O[C@H]3O[C@H](CO)[C@@H](O)[C@H](N)[C@H]3O)[C@H](N)C[C@@H]2N)[C@H](N)C[C@@H]1O` [Tobramycin, tobramycin]: the “survival of mice” value in data set [4] (6.0 mg/kg dose IP) is “survived the mice”.

Turning to “(3R,3aR,4R,5R,7S,8S,9R,9aS,12R)-3,8-dihydroxy-4,7,9,12-tetramethyl-7-vinyldecahydro-4,9a-propanocyclopenta[8]annulen-5-yl 2-((1-((R)-2-((S)-2,5-diaminopentanamido)-3-methylbutanamido)-2-methylpropan-2-yl)thio)acetate [compound 2]”, in data set [8], the minimum inhibitory concentration (MIC) was 3.13 µg/mL and the MBC was above 12.5 µg/mL. In data set [2], this compound gave an MBC above 12.5 µg/mL and an MIC of 3.13 µg/mL.
